The values that follow come from patent publication US20150080337A1, “N-CYCLOALKYL-N-[(TRISUBSTITUTEDSILYLPHENYL)METHYLENE]-(THIO)CARBOXAMIDE DERIVATIVES” (BAYER CROPSCIENCE, priority 2012, published 2015).

Series [1] in a line: log P by HPLC on reversed-phase column (C 18), EEC Directive 79/831 Annex V.A8. Format: physicochemical. The settings on record: HPLC C 18, 40° C., 0.1% aqueous formic acid and acetonitrile, gradient 10% to 90% acetonitrile. As to the method: In table 1, the log P values were determined in accordance with EEC Directive 79/831 Annex V.A8 by HPLC (High Performance Liquid Chromatography) on a reversed-phase column (C 18), using the method described below:
Temperature: 40° C.; Mobile phases: 0.1% aqueous formic acid and acetonitrile; linear gradient from 10% acetonitrile to 90% acetonitrile.
Calibration was carried out using unbranched alkan-2-ones (comprising 3 to 16 carbon atoms) with known log P values (determination of the log P values by the retention times using linear interpolation between two successive alkanones). lambda-max-values were determined using UV-spectra from 200 nm to 400 nm and the peak values of the chromatographic signals.
In table 2, M+H (Apcl+) and log P are defined as for table 1.

A further series has as its system Sphaerotheca fuliginea. The experiment in a line: In vivo test on Sphaerotheca fuliginea (cucurbits powdery mildew). The settings on record: 500 ppm of active ingredient; gherkin plants sprayed 24 hours before contamination; grading 12 days after contamination vs control plants. As to the method:
The active ingredients tested are prepared by homogenization in a mixture of acetone/tween/DMSO and then diluted with water to obtain the desired active material concentration.
Gherkin plants (“Vert petit de Paris” variety), sown in starter cups on a 50/50 peat soil-pozzolana substrate and grown at 24° C., are treated at the Z11 cotyledon stage by spraying with the active ingredient prepared as described above. Plants, used as controls, are treated with the mixture of acetone/tween/DMSO/water not containing the active material.
After 24 hours, the plants are contaminated by spraying the cotyledons with an aqueous suspension of Sphaerotheca fuliginea spores (100 000 spores per mL). The spores are collected from infected plants. The contaminated gherkin plants are incubated at about 20° C. and at 70-80% relative humidity.
(§1) Grading (% of efficacy) is carried out 12 days after the contamination, in comparison with the control plants.
Under these conditions, good (at least 70%) to total protection is observed at a dose of 500 ppm of active ingredient with the following compounds from table A: […]

Another series concerns Puccinia recondita. Put plainly: In vivo test on Puccinia recondita (brown rust). The settings on record: 500 ppm of active ingredient; wheat plants sprayed 24 hours before contamination; grading 12 days after contamination vs control plants. As to the method: (§2) The active ingredients tested are prepared by homogenization in a mixture of acetone/tween/DMSO, and then diluted with water to obtain the desired active material concentration.
(§3) Wheat plants (“Scipion” variety), sown in starter cups on a 50/50 peat soil pozzolana substrate and grown at 22° C., are treated at the 1 leaf stage (10 cm height) by spraying with the active ingredient prepared as described above. Plants, used as controls, are treated with the mixture of acetone/tween/DMSO/water not containing the active material.
After 24 hours, the plants are contaminated by spraying the leaves with an aqueous suspension of Puccinia recondita spores (100 000 spores per mL). The spores are collected from an infected plant and are suspended in water containing 2.5 mL/L of Tween 80 at 10%. The contaminated wheat plants are incubated for 24 hours at 20° C. and at 100% relative humidity, and then for 10 days at 20° C. and at 70-80% relative humidity.
as §1
Under these conditions, good (at least 70%) to excellent (at least 90%) protection is observed at a dose of 500 ppm of active ingredient with the following compounds from table C: […]

A further series relates to Uromyces appendiculatus. Put plainly: In vivo preventive test on Uromyces appendiculatus (bean rust). The settings on record: 500 ppm of active ingredient; bean plants sprayed 24 hours before contamination; grading 11 days after contamination vs control plants. As to the method: as §2
Bean plants (“Saxa” variety), sown in starter cups on a 50/50 peat soil pozzolana substrate and grown at 24° C., are treated at the 2 leaf stage (9 cm height) by spraying with the active ingredient prepared as described above. Plants, used as controls, are treated with the mixture of acetone/tween/DMSO/water not containing the active material.
After 24 hours, the plants are contaminated by spraying the leaves with an aqueous suspension of Uromyces appendiculatus spores (150 000 spores per mL). The spores are collected from infected plants and are suspended in water containing 2.5 mL/L of Tween 80 at 10%. The contaminated bean plants are incubated for 24 hours at 20° C. and at 100% relative humidity, and then for 10 days at 20° C. and at 70-80% relative humidity.
Grading (% of efficacy) is carried out 11 days after the contamination, in comparison with the control plants.
Under these conditions, good (at least 70%) to total protection is observed at a dose of 500 ppm of active ingredient with the following compounds from table G: […]

The subject of the next series is Septoria tritici. Put plainly: In vivo preventive test on Septoria tritici (wheat). The settings on record: 500 ppm of active ingredient; wheat plants sprayed 24 hours before contamination; grading 24 days after contamination vs control plants. As for the experimental part:
as §2, §3
After 24 hours, the plants are contaminated by spraying the leaves with an aqueous suspension of cryopreserved Septoria tritici spores (500 000 spores per mL). The contaminated wheat plants are incubated for 72 hours at 18° C. and at 100% relative humidity, and then for 21 days at 90% relative humidity.
Grading (% of efficacy) is carried out 24 days after the contamination, in comparison with the control plants.
Under these conditions, good (at least 70%) to total protection is observed at a dose of 500 ppm of active ingredient with the following compounds from table F: […]

[2] abbreviates: Table 1, compounds of formula (I).
The mark [3] stands for this setting: Table 2, compounds of formula (II).

What is called logP is the decadic logarithm of the partition coefficient of the neutral form, usually between octanol and water. Low values mean lower lipophilicity, high ones higher lipophilicity. As to `CCc1nn(C)c(F)c1C(=O)N(Cc1ccccc1[Si](C)(C)c1ccccc1)C1CC1` [I.2], the logP in series [1] (setting [2]) is reported as 4.81. Also, the Efficacy in the series with Sphaerotheca fuliginea is 100%; in the series with Puccinia recondita it was 83%.

In turn, `Cn1nc(C(F)F)c(C(=O)N(Cc2ccccc2[Si](C)(C)c2ccccc2)C2CC2)c1Cl` [I.5] yielded a logP in series [1] (setting [2]) of 4.88. In addition, the Efficacy in the series with Sphaerotheca fuliginea was 79%; in the series on Puccinia recondita, 83%.

Take `Cn1nc(C(F)F)c(C(=O)N(Cc2ccccc2[Si](C)(C)c2ccc(Cl)cc2)C2CC2)c1F` [I.6]: the logP in series [1] (setting [2]) was 5.19. The Efficacy with Sphaerotheca fuliginea was determined as 100%; in the series on Puccinia recondita, 94%; in the series on Uromyces appendiculatus, 100%.

On to `Cn1cc(C(=O)N(Cc2ccccc2[Si](C)(C)c2ccc(Cl)cc2)C2CC2)c(C(F)F)n1` [I.7], for which the logP in series [1] (setting [2]) worked out at 4.81. The Efficacy is given as 70% in the series with Sphaerotheca fuliginea, 78% with Puccinia recondita and 86% in the series on Uromyces appendiculatus.

Take `Cc1cc(C(=O)N(Cc2ccccc2[Si](C)(C)c2ccc(Cl)cc2)C2CC2)c(C)o1` [I.9]: the logP in series [1] (setting [2]) is recorded as 5.78.

For the compound `Cn1cc(C(=O)N(Cc2ccccc2[Si](C)(C)c2ccc(Cl)cc2)C2CC2)c(C(F)F)c1` [I.10], the log partition coefficient (logP) in series [1] (setting [2]) came out at 5.19.

Turning to `C[Si](C)(c1ccc(Cl)cc1)c1ccccc1CN(C(=O)c1ccsc1I)C1CC1` [I.11], the logP in series [1] (setting [2]) stood at 5.81.

As to `Cc1nc(C(F)F)c(C(=O)N(Cc2ccccc2[Si](C)(C)c2ccc(Cl)cc2)C2CC2)s1` [I.12], the log partition coefficient (logP) in series [1] (setting [2]) was 5.31.

With `Cn1nc(C(F)F)c(C(=O)N(Cc2ccccc2[Si](C)(C)c2ccc(-c3ccccc3)cc2)C2CC2)c1F` [I.13], the logP in series [1] (setting [2]) was 5.71.

Take `Cn1cc(C(=O)N(Cc2ccccc2[Si](C)(C)c2ccc(-c3ccccc3)cc2)C2CC2)c(C(F)F)n1` [I.14]: the logP in series [1] (setting [2]) is listed as 5.36.

In series [1] (setting [2]), `Cc1cc(C(=O)N(Cc2ccccc2[Si](C)(C)c2ccc(-c3ccccc3)cc2)C2CC2)c(C)o1` [I.15] had a log partition coefficient (logP) of 6.39.

On to `C[Si](C)(c1ccc(-c2ccccc2)cc1)c1ccccc1CN(C(=O)c1ccsc1I)C1CC1` [I.16], for which the logP in series [1] (setting [2]) worked out at 6.39.

`Cc1nc(C(F)F)c(C(=O)N(Cc2ccccc2[Si](C)(C)c2ccc(-c3ccccc3)cc2)C2CC2)s1` [I.17] yielded a logP in series [1] (setting [2]) of 5.93.

`Cn1cc(C(=O)N(Cc2ccccc2[Si](C)(C)c2ccc(-c3ccccc3)cc2)C2CC2)c(C(F)F)c1` [I.18] showed a logP in series [1] (setting [2]) of 5.68.

Regarding `Cc1cc(C(=O)N(Cc2ccccc2[Si](C)(C)c2ccc(Oc3ccccc3)cc2)C2CC2)c(C)o1` [I.21], in series [1] (setting [2]), the logP is listed as 6.33.

Take `C[Si](C)(c1ccc(Oc2ccccc2)cc1)c1ccccc1CN(C(=O)c1ccsc1I)C1CC1` [I.22]: the lipophilicity (logP) in series [1] (setting [2]) worked out at 6.36.

On to `Cn1cc(C(=O)N(Cc2ccccc2[Si](C)(C)c2ccc(Oc3ccccc3)cc2)C2CC2)c(C(F)F)c1` [I.23], for which, in series [1] (setting [2]), the logP is reported as 5.62.

`Cc1nc(C(F)F)c(C(=O)N(Cc2ccccc2[Si](C)(C)c2ccc(Oc3ccccc3)cc2)C2CC2)s1` [I.24] showed a logP in series [1] (setting [2]) of 5.81. This logP and that of the compound before are within 0.2 log units of each other.

In the case of `Cn1cc(C(=O)N(Cc2ccccc2[Si](C)(C)c2cccc3ccccc23)C2CC2)c(C(F)F)n1` [I.26], the log partition coefficient (logP) in series [1] (setting [2]) was determined as 4.83.

In the case of `Cc1cc(C(=O)N(Cc2ccccc2[Si](C)(C)c2cccc3ccccc23)C2CC2)c(C)o1` [I.27], the logP in series [1] (setting [2]) was found to be 5.87.

Turning to `Cn1cc(C(=O)N(Cc2ccccc2[Si](C)(C)c2cccc3ccccc23)C2CC2)c(C(F)F)c1` [I.28], the logP in series [1] (setting [2]) was determined as 5.19.

Compound `Cc1nc(C(F)F)c(C(=O)N(Cc2ccccc2[Si](C)(C)c2cccc3ccccc23)C2CC2)s1` [I.30] registered a logP in series [1] (setting [2]) of 5.31.

In the case of `Cn1nc(C(F)F)c(C(=O)N(Cc2ccccc2[Si](C)(C)c2cccs2)C2CC2)c1Cl` [I.32], the logP in series [1] (setting [2]) is listed as 4.72. The same compound came in with an Efficacy in the series with Uromyces appendiculatus of 71%.

`Cn1nc(C(F)F)c(C(=O)N(Cc2ccccc2[Si](C)(C)c2cccs2)C2CC2)c1F` [I.33]: in series [1] (setting [2]), the logP is recorded as 4.61. Further, the Efficacy with Sphaerotheca fuliginea, in the series on Septoria tritici and with Uromyces appendiculatus was 100% throughout.

The compound `C[Si](C)(c1cccs1)c1ccccc1CN(C(=O)c1ccsc1I)C1CC1` [I.34] showed a logP in series [1] (setting [2]) of 5.28.

In series [1] (setting [2]), `Cc1cc(C(=O)N(Cc2ccccc2[Si](C)(C)c2cccs2)C2CC2)c(C)o1` [I.35] gave a log partition coefficient (logP) of 5.19.

As to `Cc1nc(C(F)F)c(C(=O)N(Cc2ccccc2[Si](C)(C)c2cccs2)C2CC2)s1` [I.36], the logP in series [1] (setting [2]) was 4.74.

In series [1] (setting [2]), `Cn1cc(C(=O)N(Cc2ccccc2[Si](C)(C)c2cccs2)C2CC2)c(C(F)F)c1` [I.37] gave a logP of 4.59.

`COc1ccc([Si](C)(C)c2ccccc2CN(C(=O)c2c(C(F)F)nn(C)c2F)C2CC2)cn1` [I.38] showed a logP in series [1] (setting [2]) of 4.13.

Turning to `COc1ccc([Si](C)(C)c2ccccc2CN(C(=O)c2c(C(F)F)nn(C)c2Cl)C2CC2)cn1` [I.39], the logP in series [1] (setting [2]) was found to be 4.25. This logP and that of the compound before are within 0.2 log units of each other.

A word on the chromatographic logP: it is lipophilicity estimated from chromatographic retention. A low value points to a more hydrophilic compound. Regarding `C[Si](C)(c1ccccc1)c1ccccc1CNC1CC1` [II.1, N-{2-[dimethyl(phenyl)silyl]benzyl}cyclopropanamine], the chromatographic logP in series [1] (setting [3]) amounted to 1.95.

As to `C[Si](C)(c1ccc(Cl)cc1)c1ccccc1CNC1CC1` [II.2, N-{2-[(4-chlorophenyl)(dimethyl)silyl]benzyl}cyclopropanamine], the chromatographic logP in series [1] (setting [3]) is 2.07.

For the compound `C[Si](C)(c1ccc(-c2ccccc2)cc1)c1ccccc1CNC1CC1` [II.3, N-{2-[biphenyl-4-yl(dimethyl)silyl]benzyl}cyclopropanamine], the chromatographic logP in series [1] (setting [3]) was determined as 2.39.

The compound `C[Si](C)(c1ccc(Oc2ccccc2)cc1)c1ccccc1CNC1CC1` [II.4, N-{2-[dimethyl(4-phenoxyphenyl)silyl]benzyl}cyclopropanamine] displayed a chromatographic logP in series [1] (setting [3]) of 2.42. This chromatographic logP and that of the compound before are within 0.2 log units of each other.

Take `C[Si](C)(c1ccccc1CNC1CC1)c1cccc2ccccc12` [II.5, N-{2-[dimethyl(1-naphthyl)silyl]benzyl}cyclopropanamine]: in series [1] (setting [3]), the chromatographic logP is 2.11.

For `C[Si](C)(c1cccs1)c1ccccc1CNC1CC1` [II.6, N-{2-[dimethyl(2-thienyl)silyl]benzyl}cyclopropanamine], in series [1] (setting [3]), the chromatographic logP is 1.76.

In series [1] (setting [3]), `CC1CC1NCc1ccccc1[Si](C)(C)c1ccccc1` (stereo not shown) [II.7] registered a logP of 2.70.

With `COc1ccc([Si](C)(C)c2ccccc2CNC2CC2)cn1` [II.8, N-{2-[(6-methoxypyridin-3-yl)(dimethyl)silyl]benzyl}cyclopropanamine], the chromatographic logP in series [1] (setting [3]) was 1.86.
